The assay concerns the target T1, human CCR6 (Homo sapiens, UniProt P51684).
T1 construct: expressed in transfected cells; host or cells: HEK-293
T1 sequence (P51684 1-374): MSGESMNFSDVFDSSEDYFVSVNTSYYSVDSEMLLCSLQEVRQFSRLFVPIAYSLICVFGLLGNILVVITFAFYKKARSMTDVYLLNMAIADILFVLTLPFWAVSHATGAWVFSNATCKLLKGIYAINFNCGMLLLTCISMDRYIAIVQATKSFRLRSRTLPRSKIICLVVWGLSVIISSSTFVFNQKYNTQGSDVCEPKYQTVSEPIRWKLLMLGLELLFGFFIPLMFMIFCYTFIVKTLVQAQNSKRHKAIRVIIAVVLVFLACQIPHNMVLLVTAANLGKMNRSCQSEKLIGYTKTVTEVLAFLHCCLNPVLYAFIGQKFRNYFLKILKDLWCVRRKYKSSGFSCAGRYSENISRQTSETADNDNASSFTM
Briefly: FLIPR assay (inhibition of CCL20-induced calcium signal). It counts as cell-based. The note with it: HEK-293 cells expressing human CCR6; mean values where determined several times; read-out: FLIPR IC50. The method, boiled down: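 Dye-loaded HEK-293 cells expressing human CCR6 were preincubated with compound for 30 min at room temperature in the dark, then challenged with 10 nM CCL20 (final). Fluorescence was tracked on FLIPR, and baseline-subtracted peak emission over base after agonist addition gave inhibition dose-response curves for IC50.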
The IC50 is the concentration that gives 50% inhibition. For the compound `Cc1nccc(C(C)(O)C#Cc2cncc([C@@](O)(c3ccc(C(C)C)cc3)C3(C)CN(C)C3)c2)n1` (some centres unmarked) [Example 616], the concentration for half-maximal inhibition (IC50) was determined as 102 nM.
The same measure for `CCCc1ccc([C@](O)(c2cncc(-c3noc(C(C)(C)O)n3)c2)C2(C)CN(C)C2)cc1` [Example 567]: 59.1 nM; for `Cc1nc(C)n(CCOc2cncc([C@@](O)(c3ccc(C(C)C)cc3)C3(C)CN(C)C3)c2)n1` [Example 255]: 774 nM; for `CC(C)c1ccc([C@](O)(c2cncc(-c3noc(C4(C)CC(=O)N(C)C4)n3)c2)C2(C)CN(C)C2)cc1` (single isomer, unassigned) [Example 366]: 165 nM.
The same measure for `COCC(C)(C)c1nc(-c2cncc([C@@](O)(c3ccc(C(C)C)cc3)C3(C)CN(C)C3)c2)no1` [Example 134, (R)-(1,3-Dimethyl-azetidin-3-yl)-(4-isopropyl-phenyl)-{5-[5-(2-methoxy-1,1-dimethyl-ethyl)-[1,2,4]oxadiazol-3-yl]-pyridin-3-yl}-methanol]: 62 nM; for `CC(=O)N1CCCC(c2nc(-c3cncc([C@@](O)(c4ccc(C(C)C)cc4)C4(C)CN(C)C4)c3)no2)C1` (some centres unmarked) [Example 455]: 83.1 nM.
For `CC(C)c1ccc([C@](O)(c2cncc(-c3noc(C(C)(C)O)n3)c2)C2(C)CN(C(C)C)C2)cc1` [Example 339, 2-(3-{5-[(R)-Hydroxy-(1-isopropyl-3-methyl-azetidin-3-yl)-(4-isopropyl-phenyl)-methyl]-pyridin-3-yl}-[1,2,4]oxadiazol-5-yl)-propan-2-ol], the IC50 stood at 100 nM.
The same measure for `COC[C@@H]1CN(c2cncc([C@@](O)(c3ccc(C(C)C)cc3)C3(C)CN(C)C3)c2)CCO1` [Example 237]: 217 nM.
For the compound `CCC(CC)c1ccc(C(O)(c2cncc(-c3noc(C4CCN(C(C)=O)CC4)n3)c2)C2(C)CN(C)C2)cc1` (centres unmarked) [Example 563], the IC50 was found to be 45.2 nM.
Turning to `COC1(c2noc(-c3cncc([C@@](O)(c4ccc(C(C)C)cc4)C4(C)CN(C)C4)c3)n2)CCC1` [Example 101], the half-inhibitory concentration (IC50) was found to be 41.8 nM.
On to `CCC(O)(C#Cc1cncc([C@@](O)(c2ccc(C(C)C)cc2)C2(C)CN(C)C2)c1)c1cc(C)ncn1` (some centres unmarked) [Example 398], for which the IC50 was 51.8 nM.
For `CC(=O)N1CCC(O)(C#Cc2cncc([C@@](O)(c3ccc(C(C)C)cc3)C3(C)CN(C)C3)c2)CC1` [Example 597], the IC50 came out at 395 nM.
In the case of `CC(C)c1ccc([C@](O)(c2cnnc(N3CC(c4ccccn4)CC3=O)c2)C2(C)CN(C)C2)cc1` (some centres unmarked) [Example 441], the IC50 worked out at 118 nM.
The same measure for `CC(C)c1ccc([C@](O)(c2cncc(N3CC[C@H](F)C3)c2)C2(C)CN(C)C2)cc1` [Example 283]: 61.6 nM; for `CC(C)c1ccc([C@](O)(c2cncc(CCC3(O)CCc4cccnc43)c2)C2(C)CN(C)C2)cc1` (some centres unmarked) [Example 78]: 80.6 nM; for `CC(C)c1ccc([C@](O)(c2cncc(C#CC3(c4ccc(F)cc4)CC3)c2)C2(C)CN(C)C2)cc1` [Example 403]: 40.4 nM.
As to `COCC(C)(C)c1noc(-c2cncc([C@@](O)(c3ccc(C4CC4)cc3)C3(C)CN(C)C3)c2)n1` [Example 83], the IC50 is 128 nM.
The same measure for `CC(=O)N1CCC(C2CC(=O)N(c3cc([C@@](O)(c4ccc(C(C)C)cc4)C4(C)CN(C)C4)cnn3)C2)CC1` (stereo partly drawn) [Example 680, 4-(1-Acetyl-piperidin-4-yl)-1-{5-[(R)-(1,3-dimethyl-azetidin-3-yl)-hydroxy-(4-isopropyl-phenyl)-methyl]-pyridazin-3-yl}-pyrrolidin-2-one]: 428 nM; for `CC(=O)N1CCC(C(O)C#Cc2cncc([C@@](O)(c3ccc(C(C)C)cc3)C3(C)CN(C)C3)c2)CC1` (some centres unmarked) [Example 599]: 149 nM; for `CN1CC(C)([C@](O)(c2ccc(C3(C)CC3)cc2)c2cncc(-c3noc(C(C)(C)O)n3)c2)C1` [Example 543]: 22.8 nM.
Consider `CC(C)c1ccc([C@](O)(c2cncc(-c3noc(C4CC(=O)N(Cc5ccccc5)C4)n3)c2)C2(C)CN(C)C2)cc1` (some centres unmarked) [Example 356], for which the IC50 came to 12.7 nM.
The same measure for `CC(C)c1ccc([C@](O)(c2cncc(C#CC(C)(O)c3cc(C(F)F)ncn3)c2)C2(C)CN(C)C2)cc1` (some centres unmarked) [Example 633]: 42.5 nM; for `Cc1cnc(-c2cncc([C@@](O)(c3ccc(C(C)C)cc3)C3(C)CN(C)C3)c2)o1` [Example 322, (R)-(1,3-Dimethyl-azetidin-3-yl)-(4-isopropyl-phenyl)-[5-(5-methyl-oxazol-2-yl)-pyridin-3-yl]-methanol]: 49.9 nM.
The same measure for `CC(C)CN1CC(c2nc(-c3cncc([C@@](O)(c4ccc(C(C)C)cc4)C4(C)CN(C)C4)c3)no2)CC1=O` (some centres unmarked) [Example 353]: 40.3 nM.
The same measure for `CN1CC(C)([C@](O)(c2ccc(C(F)(C(F)(F)F)C(F)(F)F)cc2)c2cncc(-c3noc(C(C)(C)O)n3)c2)C1` [Example 537]: 152 nM; for `CC(=O)N1CCC(c2nc(-c3cncc([C@@](O)(c4ccc(Br)cc4)C4(C)CN(C)C4)c3)no2)CC1` [Example 546]: 776 nM; for `CC(C)c1ccc([C@](O)(c2cncc(C#CC3(O)CCCC3)c2)C2(C)CN(C)C2)cc1` [Example 18]: 33.5 nM.
Turning to `CC(C)c1ccc([C@](O)(c2cncc(-c3nc(C4(C)CCOCC4)no3)c2)C2(C)CN(C)C2)cc1` [Example 91], the IC50 amounted to 46.2 nM.
In the case of `CN1CC(C)(C(O)(c2ccc(CC(C)(C)C)cc2)c2cncc(-c3noc(C(C)(C)O)n3)c2)C1` (centres unmarked) [Example 564], the half-maximal inhibitory concentration (IC50) came out at 91.9 nM.
Consider `CC(C)c1ccc([C@](O)(c2cncc(-c3noc(CC4(O)CCC4)n3)c2)C2(C)CN(C)C2)cc1` [Example 137], for which the IC50 was 60.3 nM.
The same measure for `CC(C)c1ccc([C@](O)(c2cncc(N3C[C@H]4C[C@@H]3CO4)c2)C2(C)CN(C)C2)cc1` [Example 239]: 283 nM; for `CC(C)c1ccc([C@](O)(c2cncc(-c3noc(CCn4cccn4)n3)c2)C2(C)CN(C)C2)cc1` [Example 139, (R)-(1,3-Dimethyl-azetidin-3-yl)-(4-isopropyl-phenyl)-{5-[5-(2-pyrazol-1-yl-ethyl)-[1,2,4]oxadiazol-3-yl]-pyridin-3-yl}-methanol]: 66.6 nM; for `CN1CC(C)([C@](O)(c2ccc(C(F)(F)F)cc2)c2cncc(-c3noc(C(C)(C)O)n3)c2)C1` [Example 571]: 1190 nM.
The same measure for `CC(C)c1ccc([C@](O)(c2cncc(C#CC3(O)CCOCC3)c2)C2(C)CN(C)C2)cc1` [Example 27]: 43.7 nM; for `CC(C)c1ccc([C@](O)(c2cncc(N3CCC4(CCC4)C3=O)c2)C2(C)CN(C)C2)cc1` [Example 212]: 70.8 nM; for `CC(C)c1ccc([C@](O)(c2cncc(-c3nc(C4(O)CCOCC4)no3)c2)C2(C)CN(C)C2)cc1` [Example 519, 4-(5-{5-[(R)-(1,3-Dimethyl-azetidin-3-yl)-hydroxy-(4-isopropyl-phenyl)-methyl]-pyridin-3-yl}-[1,2,4]oxadiazol-3-yl)-tetrahydro-pyran-4-ol]: 168 nM.
The same measure for `CC(C)c1ccc([C@](O)(c2cncc(-c3noc(C4CCOC4)n3)c2)C2(C)CN(C)C2)cc1` (some centres unmarked) [Example 106]: 46.7 nM.
Take `CCCc1ccc([C@](O)(c2cncc(-c3noc(C4CCN(C(C)=O)CC4)n3)c2)C2(C)CN(C)C2)cc1` [Example 577]: the IC50 turned out to be 66.1 nM.
As for `Cc1csc(-c2cncc(C(O)(c3ccc(C(C)C)cc3)C3(C)CN(C)C3)c2)n1` (centres unmarked) [Example 270, (1,3-Dimethyl-azetidin-3-yl)-(4-isopropyl-phenyl)-[5-(4-methyl-thiazol-2-yl)-pyridin-3-yl]-methanol], the IC50 is 27.4 nM.
The same measure for `CC(C)c1ccc([C@](O)(c2cncc(-c3noc(C4CCNCC4)n3)c2)C2(C)CN(C)C2)cc1` [Example 367]: 321 nM.
The same measure for `CC(C)c1ccc([C@](O)(c2cncc(-n3cc(C4CCOCC4)nn3)c2)C2(C)CN(C)C2)cc1` [Example 284, (R)-(1,3-Dimethyl-azetidin-3-yl)-(4-isopropyl-phenyl)-{5-[4-(tetrahydro-pyran-4-yl)-[1,2,3]triazol-1-yl}-pyridin-3-yl]-methanol]: 222 nM.
The same measure for `Cc1cc(C(C)(O)C#Cc2cncc(C(O)(c3ccc(C(C)C)cc3)C3(C)CN(C)C3)c2)ncn1` (centres unmarked) [Example 40]: 92.5 nM; for `COc1ncc(C(O)(c2ccc(C(C)C)cc2)C2(C)CN(C)C2)cn1` (centres unmarked) [Example 272, (1,3-Dimethyl-azetidin-3-yl)-(4-isopropyl-phenyl)-(2-methoxy-pyrimidin-5-yl)-methanol]: 485 nM; for `CC(C)c1ccc([C@](O)(c2cncc(C#CC(C)(C)N3CCOC3=O)c2)C2(C)CN(C)C2)cc1` [Example 591]: 71.6 nM.
With `CC(C)c1ccc([C@](O)(c2cncc(-c3noc(C4CCC(=O)NC4)n3)c2)C2(C)CN(C)C2)cc1` (some centres unmarked) [Example 481], the half-maximal inhibitory concentration (IC50) came out at 184 nM.
The same measure for `CC(C)c1ccc([C@](O)(c2cncc(-c3noc(C45CC(CO)(C4)C5)n3)c2)C2(C)CN(C)C2)cc1` [Example 503]: 51.1 nM; for `CC(C)c1ccc([C@](O)(c2cncc(N3CC4(CC4)OC3=O)c2)C2(C)CN(C)C2)cc1` [Example 197]: 106 nM.

These data come from patent US12617773B2, “Azetidin-3-ylmethanol derivatives as CCR6 receptor modulators” (Idorsia Pharmaceuticals Ltd, priority 2020, dated 2026).
